Results: patent publication US12655116B2, “Substituted isophthalic acid diamides” (Bayer Aktiengesellschaft, priority 2020, dated 2026)

What was measured:
MATIN [1] = assay: Pre-emergence herbicidal action against MATIN; assay type: in vivo, Matricaria inodora; conditions: Tripleurospermum inodorum, 504 h
Summary of the method: (§1)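 Greenhouse pots of sandy loam held seeds covered with soil, onto which the compound was applied before emergence. An aqueous suspension or emulsion of WP or EC was used at 600 to 800 l/ha with 0.2% wetting agent. Percent damage was judged visually at 3 weeks.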

SETVI [2] = assay: Pre-emergence herbicidal action against SETVI; assay type: in vivo, Setaria viridis; conditions: Setaria viridis, 504 h
Summary of the method: as §1

SETVI [3] = assay: Post-emergence herbicidal action against SETVI; assay type: in vivo, Setaria viridis; conditions: Setaria viridis, 504 h
Summary of the method: (§2)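 Foliar application at one-leaf stage of formulated test compounds, aqueous spray at 600–800 l/ha with 0.2% wetting agent. Greenhouse, optimal conditions, ~3 weeks; damage scored visually in % relative to untreated plants.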

PHBPU = assay: Post-emergence herbicidal action against PHBPU; assay type: in vivo, Pharbitis purpurea; conditions: Ipomoea purpurea, 504 h
Summary of the method: as §2

ABUTH = assay: Pre-emergence herbicidal action against ABUTH; assay type: in vivo, Abutilon theophrasti; conditions: Abutilon theophrasti, 504 h
Summary of the method: as §1

STEME [4] = assay: Post-emergence herbicidal action against STEME; assay type: in vivo, Stellaria media; conditions: Stellaria media, 504 h
Summary of the method: as §2

LOLRI [5] = assay: Post-emergence herbicidal action against LOLRI; assay type: in vivo, Lolium rigidum; conditions: Lolium rigidum, 504 h, dosage 80 g/ha
Summary of the method: as §2

HORMU [6] = assay: Post-emergence herbicidal action against HORMU; assay type: in vivo, Hordeum murinum; conditions: Hordeum murinum, 504 h
Summary of the method: as §2

AVEFA [7] = assay: Pre-emergence herbicidal action against AVEFA; assay type: in vivo, Avena fatua; conditions: Avena fatua, 504 h, pre-emergence
Summary of the method: as §1

AMARE [8] = assay: Post-emergence herbicidal action against AMARE; assay type: in vivo, Amaranthus retroflexus; conditions: Amaranthus retroflexus, 504 h, visual assessment about 3 weeks after treatment, 100% = plants have died, 0% = like control plants
Summary of the method: as §2

ECHCG [9] = assay: Post-emergence herbicidal action against ECHCG; assay type: in vivo, Echinochloa crus-galli; conditions: Echinochloa crus-galli, 504 h, dosage 80 g/ha
Summary of the method: as §2

ECHCG [10] = assay: Pre-emergence herbicidal action against ECHCG; assay type: in vivo, Echinochloa crus-galli; conditions: Echinochloa crus-galli, 504 h
Summary of the method: as §1

AVEFA [11] = assay: Post-emergence herbicidal action against AVEFA; assay type: in vivo, Avena fatua; conditions: Avena fatua, 504 h, visual assessment about 3 weeks after treatment, 100% = plants have died, 0% = like control plants
Summary of the method: as §2

ALOMY [12] = assay: Pre-emergence herbicidal action against ALOMY; assay type: in vivo, Alopecurus myosuroides; conditions: Alopecurus myosuroides, 504 h, pre-emergence
Summary of the method: as §1

POLCO = assay: Post-emergence herbicidal action against POLCO; assay type: in vivo, Polygonum convolvulus; conditions: Fallopia convolvulus, 504 h, dosage 80 g/ha
Summary of the method: as §2

ALOMY [13] = assay: Post-emergence herbicidal action against ALOMY; assay type: in vivo, Alopecurus myosuroides; conditions: Alopecurus myosuroides, 504 h, visual assessment about 3 weeks after treatment vs untreated controls
Summary of the method: as §2

STEME [14] = assay: Pre-emergence herbicidal action against STEME; assay type: in vivo, Stellaria media; conditions: Stellaria media, 504 h
Summary of the method: as §1

LOLRI [15] = assay: Pre-emergence herbicidal action against LOLRI; assay type: in vivo, Lolium rigidum; conditions: Lolium rigidum, 504 h, 320 g/ha
Summary of the method: as §1

HORMU [16] = assay: Pre-emergence herbicidal action against HORMU; assay type: in vivo, Hordeum murinum; conditions: Hordeum murinum, 504 h, pre-emergence
Summary of the method: as §1

VERPE = assay: Pre-emergence herbicidal action against VERPE; assay type: in vivo, Veronica persica; conditions: Veronica persica, 504 h, dosage 320 g/ha
Summary of the method: as §1

MATIN [17] = assay: Post-emergence herbicidal action against MATIN; assay type: in vivo, Matricaria inodora; conditions: Tripleurospermum inodorum, 504 h
Summary of the method: as §2

AMARE [18] = assay: Pre-emergence herbicidal action against AMARE; assay type: in vivo, Amaranthus retroflexus; conditions: Amaranthus retroflexus, 504 h, 100% = plants have died, 0% = like control plants
Summary of the method: as §1

VIOTR = assay: Post-emergence herbicidal action against VIOTR; assay type: in vivo, Viola tricolor; conditions: Viola tricolor, 504 h
Summary of the method: as §2

[19] = 80 g/ha, scored visually after 3 weeks vs untreated controls (100% = plants have died, 0% = like control plants)
[20] = 320 g/ha, scored visually after 3 weeks, 100% = plants have died, 0% = like control plants

Compound `CCCn1nnnc1NC(=O)c1ccc(C(F)(F)F)c(C(=O)NC)c1Cl` [Example 3-129] has a pest or weed control at 20 g/ha (MATIN [1]; dosage 20 g/ha) of 90%, a pest or weed control at 80 g/ha (MATIN [1]; dosage 80 g/ha) of 100% and a pest or weed control at 320 g/ha (MATIN [1]; dosage 320 g/ha) of 100%. For the same compound, the pest or weed control at 80 g/ha (SETVI [2]; dosage 80 g/ha) was 90%, the pest or weed control at 320 g/ha (SETVI [2]; dosage 320 g/ha) was 100% and the pest or weed control at 20 g/ha (SETVI [3]; dosage 20 g/ha) was 100%. It also gave a pest or weed control at 80 g/ha (SETVI [3]; dosage 80 g/ha) of 100%, a pest or weed control at 20 g/ha (PHBPU; dosage 20 g/ha) of 90% and a pest or weed control at 80 g/ha (PHBPU; dosage 80 g/ha) of 100%. For the same compound, the pest or weed control at 80 g/ha (ABUTH; [19]) was 100%, the pest or weed control at 320 g/ha (ABUTH; Dosage: 320 g/ha, scored visually after 3 weeks, 100% = plants have died, 0% = like control plants) was 100% and the pest or weed control at 20 g/ha (ABUTH; dosage 20 g/ha, scored visually after 3 weeks vs untreated controls, 100% = plants have died, 0% = like control plants, read-out: Pre-emergence action against ABUTH (herbicidal activity in percent)) was 100%. For the same compound, the pest or weed control at 20 g/ha (STEME [4]; 20 g/ha) was 100%, the pest or weed control at 80 g/ha (STEME [4]; 80 g/ha) was 100% and the pest or weed control at 5 g/ha (STEME [4]; dosage 5 g/ha) was 100%. For the same compound, the pest or weed control at 80 g/ha (LOLRI [5]) was 80%, the pest or weed control at 20 g/ha (HORMU [6]; dosage 20 g/ha) was 90% and the pest or weed control at 80 g/ha (HORMU [6]; dosage 80 g/ha) was 100%. For the same compound, the pest or weed control at 80 g/ha (AVEFA [7]; 80 g/ha) was 100%, the pest or weed control at 320 g/ha (AVEFA [7]; [20]) was 100% and the pest or weed control at 20 g/ha (AMARE [8]; 20 g/ha) was 100%. The pest or weed control at 80 g/ha (AMARE [8]; 80 g/ha) was 100%, the pest or weed control at 80 g/ha (ECHCG [9]) was 100% and the pest or weed control at 80 g/ha (ECHCG [10]; 80 g/ha) was 80%. For the same compound, the pest or weed control at 320 g/ha (ECHCG [10]; 320 g/ha) was 100%, the pest or weed control at 20 g/ha (AVEFA [11]; 20 g/ha) was 100% and the pest or weed control at 80 g/ha (AVEFA [11]; 80 g/ha) was 100%. For the same compound, the pest or weed control at 80 g/ha (ALOMY [12]; [19]) was 80%, the pest or weed control at 320 g/ha (ALOMY [12]; [20]) was 100% and the pest or weed control at 80 g/ha (POLCO) was 90%. For the same compound, the pest or weed control at 20 g/ha (ALOMY [13]; dosage 20 g/ha) was 80%, the pest or weed control at 80 g/ha (ALOMY [13]; dosage 80 g/ha) was 100% and the pest or weed control at 20 g/ha (STEME [14]; dosage 20 g/ha) was 90%. For the same compound, the pest or weed control at 80 g/ha (STEME [14]; dosage 80 g/ha) was 100%, the pest or weed control at 320 g/ha (STEME [14]; dosage 320 g/ha) was 100% and the pest or weed control at 320 g/ha (LOLRI [15]) was 100%. The pest or weed control at 80 g/ha (HORMU [16]; 80 g/ha) was 90%, the pest or weed control at 320 g/ha (HORMU [16]; 320 g/ha) was 100% and the pest or weed control at 320 g/ha (VERPE) was 100%. The pest or weed control at 5 g/ha (MATIN [17]; dosage 5 g/ha) was 100%, the pest or weed control at 20 g/ha (MATIN [17]; dosage 20 g/ha) was 100% and the pest or weed control at 80 g/ha (MATIN [17]; dosage 80 g/ha) was 100%. For the same compound, the pest or weed control at 20 g/ha (AMARE [18]; 20 g/ha, scored visually after 3 weeks vs untreated controls) was 100%, the pest or weed control at 80 g/ha (AMARE [18]; 80 g/ha, scored visually after 3 weeks vs untreated controls) was 100% and the pest or weed control at 320 g/ha (AMARE [18]; 320 g/ha, scored visually after 3 weeks) was 100%. The pest or weed control at 5 g/ha (VIOTR; 5 g/ha) was 80%, the pest or weed control at 20 g/ha (VIOTR; 20 g/ha) was 90% and the pest or weed control at 80 g/ha (VIOTR; 80 g/ha) was 100%.
